The values that follow come from publication PMC11661291, “Unique structural features in a deep-sea CYP51 relate to high pressure adaptation” (Research Square, 2024).

By kcat is commonly meant the maximal rate divided by the concentration of active sites. A word on the Km: it is the concentration of substrate that gives half-maximal velocity. What is called kcat/Km is the second-order rate constant that governs catalysis at low substrate concentration.

Data set [1] has as its target T1, C. armatus CYP51 (Coryphaenoides armatus, UniProt Z9AQN8BZD8). Nature of the data set: Inhibition of reconstituted enzymatic activity (decrease in substrate conversion in 1 h reaction). The note with it: enzyme/inhibitor/substrate 1:50:50, 60 min, 0.5 μM P450.
Description: (§1) The samples were preincubated for 3 min at 37 °C in a shaking water bath, the reaction was initiated by the addition of 100 μM NADPH and stopped by the extraction of sterols with ethyl acetate. The extracted sterols were dried, dissolved in 100 μL of methanol, and the products were analyzed by reversed-phase HPLC equipped with a β-RAM detector (INUS Systems) using a Nova-Pak 3.9 mm × 150 mm (4 μm) octadecylsilane (C18) HPLC column. The products were separated with an isocratic mobile phase composed of acetonitrile and methanol (4:1 (v/v)) at a flow rate of 0.75 mL/min[9]. Michaelis-Menten parameters were calculated using GraphPad Prism. The kcat and Km values for each reaction were determined by fitting the data to a Michaelis–Menten hyperbola, with the reaction rates (nmol product formed/nmol P450/min) being plotted versus total substrate concentration.
The target in data set [2] is T1, C. armatus CYP51. Nature of the data set: Spectral titrations with azole-based ligands.
Description: Titrations with azole-based compounds were carried out at 0.5 μM P450 concentration in 5-cm optical path length cuvettes. Aliquots of 0.1 mM compounds dissolved in dimethyl sulfoxide (DMSO) were added to the sample cuvette, with each titration step being 0.1 μM. At each step, the corresponding volume of DMSO was added to the reference cuvette. The apparent spectral dissociation constants (Kd) were calculated in GraphPad Prism software as described for human CYP51[21].
Data set [3] addresses human CYP51. Also noted: method as in PMID 27313059. Conditions: azole ligand; read-out: apparent dissociation constant (Kd); cited from earlier work.
Data set [4] addresses T1, C. armatus CYP51. In words: Spectral titrations with sterol substrates (type I spectral response). The note with it: for Low-to-high spin state transition in the heme iron / Change in absorbance, ΔAmax per μM P450: sterol 0.25–3 μM; for Low-to-high spin state transition in the heme iron: 22 °C; for Change in absorbance, ΔAmax per μM P450: optical pathlength 1 cm.
Description: Equal amounts of the HPCD solution were added to the reference cuvette to correct for the solvent-induced spectral perturbations, and the difference spectra were taken in the wavelength range of 350–500 nm. The apparent spectral dissociation constants of the enzyme-substrate complex (Kd) were calculated in GraphPad Prism software by fitting the data for the substrate-induced absorbance changes Δ(A390-A423) versus substrate concentration to a one site-total binding equation (binding-saturation).
In data set [5] the target is T1, C. armatus CYP51. Nature of the data set: Reconstituted catalytic activity, steady-state kinetic analysis of sterol 14α-demethylation. Conditions: 0.25 μM P450, 1 μM CPR, 1 min reaction, 37 °C.
Description: as §1
The subject of data set [6] is human CYP51. Also noted: method as in PMID 27313059. Conditions: 50-fold molar excess of inhibitor over enzyme, 1-hour reaction; cited from earlier work.
The target of data set [7] is T1, C. armatus CYP51. In words: Stabilizing effect of TMAO registered by CO-binding spectra. How it is done: Absorption spectra (270–700 nm) were recorded at 22 °C using a dual-beam Shimadzu UV-2600i spectrophotometer and software UVProbe2.71. The P450 concentration was determined from the Soret band absorbance in the absolute spectrum, the extinction coefficient 117 mM^−1 cm^−1 for the low-spin ferric form or 91 mM^−1 cm^−1 for the reduced (ferrous) carbon monoxide (CO) complex in the difference spectra[51].The spin state of the P450 samples was estimated from the absolute spectra using the ratio (ΔA393–470/ΔA417–470), with values of 0.35 and 2.0 corresponding to 100% low- and 100% high-spin iron, respectively.
After data collection the crystals were dissolved in phosphate buffered saline (PBS, Gibco). UV-visible absolute absorption spectra (270–700 nm) were recorded at room temperature using a single beam spectrophotometer NanoVue,4282 (CE Healthcare) (Figure S4A). CO-binding difference absorption spectra (400–500 nm) were recorded using a dual-beam Shimadzu UV-2600i spectrophotometer as follows. The CO gas was bubbled through the protein solution, which was then divided into two cuvettes serving as a blank and standard, respectively. The baseline was taken, and a few crystals of sodium dithionate were added to the sample cuvette (Figure S4B). The corresponding spectra of the original protein sample that was used for crystallization were taken for comparison.

Data set [8] relates to CC(C)=CCC[C@@H](C)[C@H]1CC[C@@]2(C)C3=C(CC[C@]12C)[C@@]1(C)CC[C@H](O)C(C)(C)[C@@H]1CC3. Nature of the data set: purified protein, by the assay type. Conditions: other: 0.25 μM P450, 1 μM CPR, 1 min reaction, 37 °C.
Description: as §1
Data set [9] relates to C=C(CC[C@@H](C)[C@H]1CC[C@@]2(C)C3=C(CC[C@]12C)[C@@]1(C)CC[C@H](O)[C@@H](C)[C@@H]1CC3)C(C)C. Nature of the data set: purified protein, by the assay type. Conditions: other: 0.25 μM P450, 1 μM CPR, 1 min reaction, 37 °C.
Description: as §1
Data set [10] concerns C=C(CC[C@@H](C)C1CC[C@@]2(C)C3=C(CC[C@]12C)[C@@]1(C)CC[C@H](O)C(C)(C)C1CC3)C(C)C. In words: purified protein, by the assay type. The note with it: other: 0.25 μM P450, 1 μM CPR, 1 min reaction, 37 °C.
Description: as §1

T1 sequence (Z9AQN8BZD8 6-449 limits assumed): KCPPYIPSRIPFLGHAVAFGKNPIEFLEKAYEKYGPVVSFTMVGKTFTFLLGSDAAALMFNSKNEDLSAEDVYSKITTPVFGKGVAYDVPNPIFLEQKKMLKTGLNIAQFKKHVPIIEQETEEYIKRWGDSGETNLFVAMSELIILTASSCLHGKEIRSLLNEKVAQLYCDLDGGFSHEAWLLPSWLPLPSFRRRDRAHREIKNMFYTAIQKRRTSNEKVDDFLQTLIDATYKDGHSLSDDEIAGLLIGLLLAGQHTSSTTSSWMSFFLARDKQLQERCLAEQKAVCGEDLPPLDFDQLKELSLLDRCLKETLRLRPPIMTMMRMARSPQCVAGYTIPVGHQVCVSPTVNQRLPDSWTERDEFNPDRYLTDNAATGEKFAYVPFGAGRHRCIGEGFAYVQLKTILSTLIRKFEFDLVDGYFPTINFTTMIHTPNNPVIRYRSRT

As for `O[C@@](Cn1cnnn1)(c1ccc(F)cc1F)C(F)(F)c1ccc(-c2ccc(OCC(F)(F)F)cc2)cn1` [oteseconazole], on C. armatus CYP51 [1], the “inhibition of C. armatus CYP51 activity” value is “did not have any inhibitory effect”.

As for `C[C@@H](c1ncncc1F)[C@](O)(Cn1cncn1)c1ccc(F)cc1F` [voriconazole], the “inhibition of C. armatus CYP51 activity” value against C. armatus CYP51 [1] was “did not have any inhibitory effect”. Further, the results for the Kd on C. armatus CYP51 [2] and on human CYP51 [3] were 610 nM and 2530 nM, respectively.

Regarding `CC[C@@H]([C@H](C)O)n1ncn(-c2ccc(N3CCN(c4ccc(OC[C@@H]5CO[C@@](Cn6cncn6)(c6ccc(F)cc6F)C5)cc4)CC3)cc2)c1=O` [posaconazole], the “inhibition of C. armatus CYP51 activity” value on C. armatus CYP51 [1] is given as “did not have any inhibitory effect”.

`C=C(CC[C@@H](C)[C@H]1CC[C@@]2(C)C3=C(CC[C@]12C)[C@@]1(C)CC[C@H](O)[C@@H](C)[C@@H]1CC3)C(C)C` [Obtusifoliol]: the Kd at C. armatus CYP51 [4] was 560 nM. For the same molecule, at C. armatus CYP51 [4] (P450 2 μM), the “Low-to-high spin state transition in the heme iron” value (shortened to “Low-to-high spin state transition”) is recorded as 13% and the “Change in absorbance, ΔAmax per μM P450” value is reported as 14. Further, on C. armatus CYP51 [5], the kcat was determined as 0.865 s⁻¹.

On C. armatus CYP51 [4], `CC(C)=CCC[C@@H](C)[C@H]1CC[C@@]2(C)C3=C(CC[C@]12C)[C@@]1(C)CC[C@H](O)C(C)(C)[C@@H]1CC3` [Lanosterol] had a Kd of 770 nM. Moreover, at C. armatus CYP51 [4] (P450 2 μM), the “Low-to-high spin state transition” value was 22% and the “Change in absorbance, ΔAmax per μM P450” value was found to be 24. Besides, at C. armatus CYP51 [5], the kcat was 0.797 s⁻¹.

Consider `C=C(CC[C@@H](C)C1CC[C@@]2(C)C3=C(CC[C@]12C)[C@@]1(C)CC[C@H](O)C(C)(C)C1CC3)C(C)C` (stereo partly drawn), for which, on C. armatus CYP51 [4] (read-out: Kd (apparent spectral dissociation constant), sterol substrate, P450 2 μM), the Kd came out at 1020 nM. On C. armatus CYP51 [4] (P450 2 μM), the “Low-to-high spin state transition” value is listed as 27% and the “Change in absorbance, ΔAmax per μM P450” value is 30. The kcat at C. armatus CYP51 [5] is 1.03 s⁻¹.

Consider `N#Cc1ccc(COc2ccc(C#Cc3ccc(C(F)(F)[C@](O)(Cn4cnnn4)c4ccc(F)cc4F)nc3)cc2)cc1` [VT-1598], for which the “inhibition of C. armatus CYP51 activity” value against C. armatus CYP51 [1] was “did not have any inhibitory effect”.

Consider `CC(=O)N1CCN(c2ccc(OCC3COC(Cn4ccnc4)(c4ccc(Cl)cc4Cl)O3)cc2)CC1` (stereo not drawn) [ketoconazole], for which, in the data set with human CYP51 [6], the “lanosterol converted in presence of inhibitor” value is listed as 100%. Further, the Kd is 10 nM at C. armatus CYP51 [2] and 70 nM at human CYP51 [3].

As to `CCC(C)n1ncn(-c2ccc(N3CCN(c4ccc(OCC5COC(Cn6cncn6)(c6ccc(Cl)cc6Cl)O5)cc4)CC3)cc2)c1=O` (stereo not drawn) [itraconazole], on C. armatus CYP51 [1], the “inhibition of C. armatus CYP51 activity” value was “did not have any inhibitory effect”. The Kd on C. armatus CYP51 [2] was 620 nM; on human CYP51 [3], 1290 nM.

With `C[N+](C)(C)[O-]` [TMAO, trimethylamine oxide], on C. armatus CYP51 [7], the “spectral response in the heme iron” value is “does not cause any spectral response”. Besides, the “P450 recovery after overnight incubation (CO-binding spectra)” value on C. armatus CYP51 [7] (10 μM TMAO, overnight storage at 4 °C in PBS) was found to be 90%.

On to “C. armatus CYP51 (Coryphaenoides armatus)”, for which, in data set [8], the Km was 8.1 µM, the kcat amounted to 0.797 s⁻¹ and the kcat/Km was 98300 M⁻¹ s⁻¹. Also, in data set [9], the Km came out at 7.9 µM, the kcat stood at 0.865 s⁻¹ and the kcat/Km was 110000 M⁻¹ s⁻¹. For the same molecule, in [10], the Km was 13.0 µM, the kcat worked out at 1.03 s⁻¹ and the kcat/Km is 80000 M⁻¹ s⁻¹.

As to `C[C@@H](c1nc(-c2ccc(C#N)cc2)cs1)[C@](O)(Cn1cncn1)c1cc(F)ccc1F` [isavuconazole], the “inhibition of C. armatus CYP51 activity” value against C. armatus CYP51 [1] is given as “did not have any inhibitory effect”.
